Here are results for 14 molecules from ChEMBL document CHEMBL5380843 (J Med Chem, 2023).

Series [1] is described as follows: Cytotoxicity against human MT4 cells assessed as reduction in cell viability incubated for 5 days by MTT assay. Format: toxicity, cell-based. As to conditions: time 5 day. (In general: Tetrazolium dyes change colour on reduction, which living cells bring about.)
Series [2] can be described thus: Selectivity index, ratio of CC50 for cytotoxicity against human MT4 cells to EC50 for antiviral activity against wild type HIV-1 IIIB infected in human MT4 cells. The format is toxicity, cell-based. The note with it: read-out: Ratio CC50/EC50.
Series [3] can be described thus: Resistant factor, ratio of EC50 for antiviral activity against HIV-1 IIIB harboring reverse transcriptase Y188L mutant to EC50 for antiviral activity against wild type HIV-1 IIIB. The format is functional.
Series [4] in a line: Resistant factor, ratio of EC50 for antiviral activity against HIV-1 IIIB harboring reverse transcriptase […] mutant to EC50 for antiviral activity against wild type HIV-1 IIIB. The format is functional.
Series [5] deals with Human immunodeficiency virus 1. Briefly: Antiviral activity against wild type HIV-1 IIIB harboring reverse transcriptase E138K mutant infected in human MT4 cells assessed as protection against virus-induced cytopathic effect incubated for 5 days by MTT assay. Format: functional, organism-based. As to conditions: Human immunodeficiency virus 1, IIIB, MT4, 120 h. In general terms: Cytopathic effects are the visible damage that an infection or toxin causes in cultured cells.

A short description of series [6]: Resistant factor, ratio of EC50 for antiviral activity against HIV-1 IIIB harboring reverse transcriptase K103N mutant to EC50 for antiviral activity against wild type HIV-1 IIIB. Format: functional.
The target of series [7] is Human immunodeficiency virus type 1 reverse transcriptase (Human immunodeficiency virus 1, UniProt Q72547). Briefly: Inhibition of recombinant wild type HIV-1 reverse transcriptase using DNA/RNA as substrate incubated for 40 mins by Pico-green dye based spectrofluorometric analysis.
Series [8] is described as follows: Resistant factor, ratio of EC50 for antiviral activity against HIV-1 IIIB harboring reverse transcriptase E138K mutant to EC50 for antiviral activity against wild type HIV-1 IIIB. The format is functional.
Series [9] has as its system Human immunodeficiency virus 1. Briefly: Antiviral activity against wild type HIV-1 IIIB harboring reverse transcriptase Y188L mutant infected in human MT4 cells assessed as protection against virus-induced cytopathic effect incubated for 5 days by MTT assay. The note with it: Human immunodeficiency virus 1, IIIB, MT4, 120 h. Format: functional, organism-based.
The subject of series [10] is Human immunodeficiency virus 1. Briefly: Antiviral activity against wild type HIV-1 IIIB harboring reverse transcriptase Y181C mutant infected in human MT4 cells assessed as protection against virus-induced cytopathic effect incubated for 5 days by MTT assay. The note with it: Human immunodeficiency virus 1, IIIB, MT4, 120 h. The format is functional, organism-based.

The subject of series [11] is Human immunodeficiency virus 1. Briefly: Antiviral activity against wild type HIV-1 IIIB harboring reverse transcriptase K103N mutant infected in human MT4 cells assessed as protection against virus-induced cytopathic effect incubated for 5 days by MTT assay. The format is functional, organism-based. The note with it: Human immunodeficiency virus 1, IIIB, MT4, 120 h.

Series [12] relates to Human immunodeficiency virus 1. Briefly: Antiviral activity against wild type HIV-1 IIIB infected in human MT4 cells assessed as protection against virus-induced cytopathic effect incubated for 5 days by MTT assay. Format: functional, organism-based. As to conditions: Human immunodeficiency virus 1, IIIB, MT4, 120 h.
Series [13] has as its system Human immunodeficiency virus 1. Briefly: Antiviral activity against wild type HIV-1 IIIB harboring reverse transcriptase […] mutant infected in human MT4 cells assessed as protection against virus-induced cytopathic effect incubated for 5 days by MTT assay. Format: functional, organism-based. The note with it: Human immunodeficiency virus 1, IIIB, MT4, 120 h.
The nature of series [14]: Resistant factor, ratio of EC50 for antiviral activity against HIV-1 IIIB harboring reverse transcriptase Y181C mutant to EC50 for antiviral activity against wild type HIV-1 IIIB. The format is functional.

Turning to `N#Cc1ccc(Nc2nccc(Oc3ccc4cc(C#N)ccc4c3Br)n2)cc1`, the CC50 at 120 h in [1] was 283 µM. For the same molecule, in [2], the selectivity ratio was 181000.
As for `N#Cc1ccc(Nc2ncc(C(N)=O)c(Oc3ccc(-c4ccc(C#N)cc4)cc3Cl)n2)cc1`, the “Ratio EC50” value in [3] is listed as 2150; in [4], 746; in [6] it was 54; in series [8], 8; in [14] it was 1261. The EC50 in series [5] turned out to be 0.821 µM; in series [9], 219 µM; in series [10] it was 129 µM; in series [11], 5.53 µM; in series [12], 0.102 µM; in series [13], 76 µM. The IC50 in series [7] turned out to be 0.028 µM. Further, the CC50 at 120 h in series [1] is greater than 270 µM. The selectivity ratio in [2] was greater than 2650.
For the molecule `CNC(=O)c1cnc(Nc2ccc(C#N)cc2)nc1Oc1c(C)cc(-c2ccc(C#N)cc2)cc1C`, the “Ratio EC50” value in [3] is listed as 10; in series [4], 2.7; in [6], 1.5; in series [8], 1.8; in series [14], 8.2. In addition, the concentration for a half-maximal effect (EC50) in [5] worked out at 0.006 µM; in series [9], 0.034 µM; in series [10] it was 0.027 µM; in [11], 0.005 µM; in series [12] it was 0.003 µM; in [13], 0.009 µM. The IC50 in [7] turned out to be 0.056 µM. Further, the CC50 at 120 h in [1] is greater than 42.1 µM. In [2], the selectivity ratio was greater than 12700.
As for `Cc1cc(-c2ccc(C#N)cc2)cc(C)c1Oc1nc(Nc2ccc(C#N)cc2)ncc1C(=O)NCCCO`, the “Ratio EC50” value in series [3] was determined as 8.9; in series [4], 2.7; in series [6], 1.6; in [8] it was 0.9; in series [14] it was 9.1. Also, in series [7], the 50% inhibitory concentration (IC50) amounted to 0.071 µM. Further, the EC50 in [9] came out at 0.05 µM; in series [10], 0.051 µM; in [11] it was 0.009 µM; in [12], 0.005 µM; in series [13] it was 0.015 µM. The CC50 at 120 h in series [1] was found to be 31.4 µM. The selectivity ratio in [2] turned out to be 5590.
With `Cc1cc(-c2ccc(C#N)cc2)ccc1Oc1nc(Nc2ccc(C#N)cc2)ncc1C(N)=O`, the “Ratio EC50” value in series [3] amounted to 230; in [4], 32; in series [6] it was 3; in [8], 3.7; in [14] it was 140. Further, the EC50 in [5] stood at 0.115 µM; in series [9] it was 7.12 µM; in series [10], 4.34 µM; in series [11], 0.094 µM; in series [12], 0.031 µM; in series [13] it was 0.994 µM. Moreover, the IC50 in [7] was 0.019 µM. Besides, the cytotoxic concentration (CC50) at 120 h in [1] was greater than 280 µM. Also, the selectivity ratio in series [2] is greater than 9000.
Consider `Cc1cc(-c2ccc(C#N)cc2)cc(C)c1Oc1nc(Nc2ccc(C#N)cc2)ncc1C(N)=O`, for which the “Ratio EC50” value in [3] is reported as 9.4; in [4], 1.4; in series [6], 1.6; in series [8] it was 2.4; in series [14] it was 13. Also, the concentration giving a half-maximal response (EC50) came to 0.039 µM in [5]; 0.15 µM in series [9]; 0.206 µM in series [10]; 0.026 µM in [11]; 0.016 µM in series [12]; 0.022 µM in series [13]. The concentration for half-maximal inhibition (IC50) in series [7] came to 0.026 µM. For the same molecule, the cytotoxic concentration (CC50) at 120 h in series [1] was greater than 43.4 µM. In addition, in [2], the selectivity ratio was greater than 2760.
On to `COc1cc(-c2ccc(C#N)cc2)ccc1Oc1nc(Nc2ccc(C#N)cc2)ncc1C(N)=O`, for which the “Ratio EC50” value in [3] was found to be 11; in series [4] it was 0.3; in series [6], 0.2; in [8], 1; in series [14], 7.6. The half-maximal inhibitory concentration (IC50) in [7] is 0.028 µM. Moreover, the 50% effective concentration (EC50) worked out at 0.191 µM in [9]; 0.136 µM in series [10]; 0.004 µM in [11]; 0.018 µM in [12]; 0.006 µM in [13]. Moreover, in series [1], the CC50 at 120 h was greater than 276 µM. Besides, the selectivity ratio in [2] is greater than 15300.
With `N#Cc1ccc(Nc2ncc(C(N)=O)c(Oc3c(F)cc(-c4ccc(C#N)cc4)cc3F)n2)cc1`, the “Ratio EC50” value in series [3] stood at 1178; in series [4] it was 40; in series [6] it was 5.8; in series [8], 5.3; in series [14] it was 362. Moreover, the half-maximal effective concentration (EC50) in series [5] was 0.159 µM; in [9], 35.3 µM; in [10] it was 10.9 µM; in [11], 0.175 µM; in series [12], 0.03 µM; in [13] it was 1.21 µM. Moreover, in series [7], the IC50 amounted to 0.021 µM. In addition, in series [1], the 50% cytotoxic concentration (CC50) at 120 h is greater than 53.4 µM. In addition, the selectivity ratio in [2] was greater than 1780.
For `Cc1cc(-c2ccc(C#N)cc2)cc(Cl)c1Oc1nc(Nc2ccc(C#N)cc2)ncc1C(N)=O`, the “Ratio EC50” value in series [3] came to 2.8; in series [4], 1.5; in series [6] it was 0.9; in [8], 0.2; in series [14], 1.1. In addition, the concentration for a half-maximal effect (EC50) in [5] was found to be 0.005 µM; in [9] it was 0.094 µM; in series [10] it was 0.035 µM; in series [11], 0.031 µM; in series [12], 0.033 µM; in [13], 0.049 µM. Also, in [7], the IC50 came to 0.066 µM. Moreover, in series [1], the 50% cytotoxic concentration (CC50) at 120 h is greater than 41.6 µM. Moreover, in series [2], the selectivity ratio is greater than 1270.
On to `N#Cc1ccc(Nc2ncc(C(N)=O)c(Oc3ccc(-c4ccc(C#N)cc4)cc3F)n2)cc1`, for which the “Ratio EC50” value is on record as greater than 1713 in [3]; 1429 in [4]; 391 in series [6]; 9.9 in series [8]; greater than 1713 in series [14]. The EC50 in [5] is 1.61 µM; in series [9], greater than 278 µM; in [10], greater than 278 µM; in series [11] it was 63.4 µM; in series [12] it was 0.162 µM; in [13], 231 µM. Further, the 50% inhibitory concentration (IC50) in series [7] came out at 0.025 µM. In addition, the cytotoxic concentration (CC50) at 120 h in series [1] is greater than 278 µM. In addition, in series [2], the selectivity ratio is greater than 1720.
On to `O=C1Nc2ccc(Cl)cc2[C@@](C#CC2CC2)(C(F)(F)F)O1` [EFAVIRENZ], for which the EC50 in series [5] amounted to 0.006 µM; in [9], 0.29 µM; in series [10], 0.007 µM; in series [11], 0.102 µM; in [12], 0.007 µM; in series [13] it was 0.044 µM. Also, the half-maximal cytotoxic concentration (CC50) at 120 h in [1] was greater than 6.34 µM.
Consider `Cc1cc(C#N)cc(C)c1Oc1nc(Nc2ccc(C#N)cc2)nc(N)c1Br` [ETRAVIRINE], for which the EC50 in series [5] stood at 0.007 µM; in [9] it was 0.02 µM; in series [10], 0.012 µM; in [11] it was 0.003 µM; in series [12], 0.006 µM; in series [13] it was 0.007 µM. Besides, the CC50 at 120 h in [1] is greater than 4.61 µM.
Regarding `Cc1ccnc2c1NC(=O)c1cccnc1N2C1CC1` [NEVIRAPINE], the EC50 in [5] was 0.21 µM; in series [9], greater than 15.9 µM; in series [10] it was greater than 15.9 µM; in [11], greater than 10.1 µM; in series [13], 2.1 µM. The CC50 at 120 h in series [1] was greater than 15 µM.
For `Cc1cc(/C=C/C#N)cc(C)c1Nc1ccnc(Nc2ccc(C#N)cc2)n1` [RILPIVIRINE], the values for the EC50 in [10], in series [11] and in series [13] were 0.004 µM, 0.001 µM and 0.002 µM, respectively.

As a reminder, the CC50 is the concentration giving 50% cytotoxicity. Usually EC50 stands for the concentration needed to bring the measured effect to its halfway point. As a reminder, the IC50 is the concentration at which inhibition is half-maximal.
